Laboratory results reported in US20230087140A1, “TREATMENT OF PAIN ASSOCIATED WITH CESAREAN SECTION SURGERY WITH SUSTAINED-RELEASE LIPOSOMAL ANESTHETIC COMPOSITIONS” (Pacira Pharmaceuticals, Inc., priority 2020, published 2023).
Where a name gives a salt, the structure may show the parent alone.

Legend:
[1] = cited from earlier work
[2] = system: patients undergoing elective cesarean delivery; assay: Randomized double-blind clinical trial, efficacy of TAP block after cesarean delivery (opioid consumption, VAS pain); type: in vivo, human; conditions: mITT
[3] = system: patients undergoing elective cesarean delivery; assay: Clinical trial safety: treatment-emergent adverse events through day 14 (safety analysis set)
[4] = TEAEs occurring in >5% of patients in either group
[5] = safety analysis set, through day 14
[6] = treatment-relatedness determined by the investigator

## CCCCN1CCCCC1C(=O)Nc1c(C)cccc1C (centres unmarked) [BUPI HCl alone, bupivacaine hydrochloride]
[1]; 1.4 to 1.6 mL hyperbaric BUPI HCl 0.75%, spinal
  expected duration of action in spinal anesthesia: ~2 h
[1]; standard local anesthetics, TAP block background
  duration of analgesia: 5 to 8 h
[2]; 24 hours
  percentage of opioid-free patients at 24 hours: 93.7%
[2]; 48 hours
  percentage of opioid-free patients at 48 hours: 50.6%
[2]; 72 hours
  percentage of opioid-free patients at 72 hours: 48.6%
  percentage of opioid-spared patients at 72 hours: 24.7%
[2]; median
  median time to first opioid rescue: 41.1 h
[2]; through 72 hours, hydrochloride
  LSM (SE) AUC0-72 of VAS pain intensity scores through 72 hours: 178.5 (19.78)
[3]; [4]
  TEAE: Back pain: 5 (5.6) number (percentage)
  TEAE: Constipation: 4 (4.5) number (percentage)
  TEAE: Dizziness: 5 (5.6) number (percentage)
  TEAE: Headache: 10 (11.2) number (percentage)
  TEAE: Nausea: 11 (12.4) number (percentage)
  TEAE: Pruritus: 28 (31.5) number (percentage)
  TEAE: Rash: 3 (3.4) number (percentage)
  TEAE: Vomiting: 6 (6.7) number (percentage)
[3]; [5]
  Any TEAE: 50 (56.2) number (percentage)
  Any treatment-related TEAE: 9 (10.1) number (percentage)
  Fatal TEAE: 0 (0.0) number (percentage)
  Serious TEAE: 3 (3.4) number (percentage)
[3]; summary of results
  Serious TEAEs: ~3%
  fatal TEAEs: no fatal TEAEs
  patients who experienced a TEAE: 56.2%
[3]; [6]
  Treatment-related TEAE: Back pain: 1 (1.1) number (percentage)
  Treatment-related TEAE: Dizziness: 0 (0.0) number (percentage)
  Treatment-related TEAE: Dysuria: 1 (1.1) number (percentage)
  Treatment-related TEAE: Nausea: 0 (0.0) number (percentage)
  Treatment-related TEAE: Pruritus: 8 (9.0) number (percentage)
  Treatment-related TEAE: Vomiting: 0 (0.0) number (percentage)
